{"source": "patent US10870647B2", "about": "“Imidazopyridine derivative, method for preparing same, and pharmaceutical composition containing same as active ingredient for preventing or treating cancer” (DAEGU-GYEONGBUK MEDICAL INNOVATION FOUNDATION, priority 2016, dated 2020)", "assay_in_all_cases": "Kinase selectivity, scanMAX Kinase assay panel (DiscoverX), % control at 1 uM", "type_in_all_cases": "binding", "key": {"[1]": {"target": "T1, scanMAX Kinase assay panel (Homo sapiens, UniProt O14757)", "T1 construct": "purchased DiscoverX", "T1 sequence (O14757 1-476)": "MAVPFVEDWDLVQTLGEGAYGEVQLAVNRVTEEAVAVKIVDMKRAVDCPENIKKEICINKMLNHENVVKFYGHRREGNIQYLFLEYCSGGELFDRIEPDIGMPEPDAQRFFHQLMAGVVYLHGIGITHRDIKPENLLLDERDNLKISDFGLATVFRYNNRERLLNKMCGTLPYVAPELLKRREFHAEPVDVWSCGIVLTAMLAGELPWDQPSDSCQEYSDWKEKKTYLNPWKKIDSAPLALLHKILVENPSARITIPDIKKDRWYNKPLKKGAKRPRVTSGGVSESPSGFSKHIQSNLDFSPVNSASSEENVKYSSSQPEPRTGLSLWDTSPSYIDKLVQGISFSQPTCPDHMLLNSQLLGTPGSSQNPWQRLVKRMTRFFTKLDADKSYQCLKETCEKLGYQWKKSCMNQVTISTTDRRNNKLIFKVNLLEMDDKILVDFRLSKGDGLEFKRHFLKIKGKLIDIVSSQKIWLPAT", "settings": "CHEK1; 1 uM; read-out: Percent Control (%)", "summary_of_the_method": "(§1)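 Single-point screen at 1 uM compound in DMSO. Lower % control means stronger inhibition, with the cutoff for activity set at <35%.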"}, "[2]": {"target": "T2, scanMAX Kinase assay panel (Homo sapiens, UniProt P00533, DEL752-759)", "T2 construct": "purchased DiscoverX", "T2 sequence (P00533 with tags, fused parts or gaps DEL752-759)": "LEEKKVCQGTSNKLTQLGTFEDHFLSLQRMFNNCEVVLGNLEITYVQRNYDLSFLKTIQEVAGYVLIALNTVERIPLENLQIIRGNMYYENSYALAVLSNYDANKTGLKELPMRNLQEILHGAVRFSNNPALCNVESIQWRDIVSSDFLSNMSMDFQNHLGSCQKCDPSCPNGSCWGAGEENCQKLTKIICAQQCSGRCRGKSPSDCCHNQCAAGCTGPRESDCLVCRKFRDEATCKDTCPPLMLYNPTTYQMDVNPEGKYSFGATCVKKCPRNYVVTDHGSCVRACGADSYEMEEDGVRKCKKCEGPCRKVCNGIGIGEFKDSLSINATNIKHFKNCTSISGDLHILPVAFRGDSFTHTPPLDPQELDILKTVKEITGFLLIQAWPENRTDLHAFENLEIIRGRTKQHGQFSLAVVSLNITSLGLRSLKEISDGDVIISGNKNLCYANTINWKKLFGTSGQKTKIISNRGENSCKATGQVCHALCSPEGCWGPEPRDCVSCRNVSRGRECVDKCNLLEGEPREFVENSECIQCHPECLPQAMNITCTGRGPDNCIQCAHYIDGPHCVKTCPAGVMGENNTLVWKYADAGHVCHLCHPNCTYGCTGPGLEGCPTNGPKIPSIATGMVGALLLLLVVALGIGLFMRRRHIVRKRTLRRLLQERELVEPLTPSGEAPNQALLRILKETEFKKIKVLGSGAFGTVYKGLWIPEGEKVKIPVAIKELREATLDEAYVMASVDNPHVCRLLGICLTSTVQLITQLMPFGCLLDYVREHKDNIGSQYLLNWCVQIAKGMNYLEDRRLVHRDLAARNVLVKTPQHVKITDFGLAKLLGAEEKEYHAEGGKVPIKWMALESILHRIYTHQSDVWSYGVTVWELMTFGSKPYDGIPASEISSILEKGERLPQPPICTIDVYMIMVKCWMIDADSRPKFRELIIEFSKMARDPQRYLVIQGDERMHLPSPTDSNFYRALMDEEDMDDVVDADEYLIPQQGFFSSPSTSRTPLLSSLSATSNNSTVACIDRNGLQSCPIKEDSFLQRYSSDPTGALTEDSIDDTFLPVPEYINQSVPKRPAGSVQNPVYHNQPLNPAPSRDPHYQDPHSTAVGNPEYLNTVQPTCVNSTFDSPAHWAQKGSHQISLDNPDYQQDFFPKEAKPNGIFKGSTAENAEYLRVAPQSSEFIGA", "settings": "EGFR (S752-I759del); 1 uM; read-out: Percent Control (%)", "summary_of_the_method": "as §1"}, "[3]": {"target": "T3, scanMAX Kinase assay panel (Homo sapiens, UniProt P08581, M1250T)", "T3 construct": "purchased DiscoverX", "settings": "MET (M1250T); 1 uM; read-out: Percent Control (%)", "summary_of_the_method": "as §1"}, "[4]": {"target": "T4, scanMAX Kinase assay panel (Homo sapiens, UniProt P22607)", "T4 construct": "purchased DiscoverX", "T4 sequence (P22607 23-806)": "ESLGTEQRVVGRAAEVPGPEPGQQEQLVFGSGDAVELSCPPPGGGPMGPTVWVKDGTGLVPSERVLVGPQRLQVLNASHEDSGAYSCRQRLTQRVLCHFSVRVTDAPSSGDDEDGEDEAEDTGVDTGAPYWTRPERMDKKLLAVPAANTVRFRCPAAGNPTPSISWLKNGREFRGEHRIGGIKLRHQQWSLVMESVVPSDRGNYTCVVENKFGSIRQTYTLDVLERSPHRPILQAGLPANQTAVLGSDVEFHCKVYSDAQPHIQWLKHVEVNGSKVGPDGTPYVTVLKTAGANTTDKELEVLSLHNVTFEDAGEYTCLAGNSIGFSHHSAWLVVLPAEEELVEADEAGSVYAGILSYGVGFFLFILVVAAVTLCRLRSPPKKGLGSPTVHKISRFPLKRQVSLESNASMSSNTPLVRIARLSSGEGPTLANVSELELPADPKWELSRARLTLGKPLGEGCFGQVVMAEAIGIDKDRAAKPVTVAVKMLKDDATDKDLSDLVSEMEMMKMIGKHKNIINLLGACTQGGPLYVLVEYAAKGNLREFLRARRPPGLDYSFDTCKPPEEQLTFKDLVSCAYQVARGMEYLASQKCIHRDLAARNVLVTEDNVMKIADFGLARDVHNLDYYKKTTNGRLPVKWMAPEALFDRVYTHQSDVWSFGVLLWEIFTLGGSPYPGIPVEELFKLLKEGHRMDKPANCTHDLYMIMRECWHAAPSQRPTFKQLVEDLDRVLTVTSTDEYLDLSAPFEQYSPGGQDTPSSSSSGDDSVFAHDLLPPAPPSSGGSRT", "settings": "FGFR3; 1 uM; read-out: Percent Control (%)", "summary_of_the_method": "as §1"}, "[5]": {"target": "T5, scanMAX Kinase assay panel (Homo sapiens, UniProt P32298)", "T5 construct": "purchased DiscoverX", "settings": "GRK4; 1 uM; read-out: Percent Control (%)", "summary_of_the_method": "as §1"}, "[6]": {"target": "T6, scanMAX Kinase assay panel (Homo sapiens, UniProt P49840)", "T6 construct": "purchased DiscoverX", "settings": "GSK3A; 1 uM; read-out: Percent Control (%)", "summary_of_the_method": "as §1"}, "[7]": {"target": "T7, scanMAX Kinase assay panel (Homo sapiens, UniProt P51817)", "T7 construct": "purchased DiscoverX", "T7 sequence (P51817 1-358)": "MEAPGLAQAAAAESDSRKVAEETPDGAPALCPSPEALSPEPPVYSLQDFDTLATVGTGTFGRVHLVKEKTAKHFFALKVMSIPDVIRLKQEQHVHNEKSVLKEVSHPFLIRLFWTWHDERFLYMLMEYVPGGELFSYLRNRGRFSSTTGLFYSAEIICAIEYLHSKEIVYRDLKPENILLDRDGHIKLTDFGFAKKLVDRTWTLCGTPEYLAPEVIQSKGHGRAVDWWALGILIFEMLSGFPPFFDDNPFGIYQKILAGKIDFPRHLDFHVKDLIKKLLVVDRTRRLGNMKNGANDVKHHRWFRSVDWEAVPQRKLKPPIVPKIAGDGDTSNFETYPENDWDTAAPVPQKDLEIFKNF", "settings": "PRKX; 1 uM; read-out: Percent Control (%)", "summary_of_the_method": "as §1"}, "[8]": {"target": "T8, scanMAX Kinase assay panel (Homo sapiens, UniProt Q86UX6)", "T8 construct": "purchased DiscoverX", "settings": "YANK3; 1 uM; read-out: Percent Control (%)", "summary_of_the_method": "as §1"}, "[9]": {"target": "T9, scanMAX Kinase assay panel (Homo sapiens, UniProt Q8N568)", "T9 construct": "purchased DiscoverX", "T9 sequence (Q8N568 whole entry)": "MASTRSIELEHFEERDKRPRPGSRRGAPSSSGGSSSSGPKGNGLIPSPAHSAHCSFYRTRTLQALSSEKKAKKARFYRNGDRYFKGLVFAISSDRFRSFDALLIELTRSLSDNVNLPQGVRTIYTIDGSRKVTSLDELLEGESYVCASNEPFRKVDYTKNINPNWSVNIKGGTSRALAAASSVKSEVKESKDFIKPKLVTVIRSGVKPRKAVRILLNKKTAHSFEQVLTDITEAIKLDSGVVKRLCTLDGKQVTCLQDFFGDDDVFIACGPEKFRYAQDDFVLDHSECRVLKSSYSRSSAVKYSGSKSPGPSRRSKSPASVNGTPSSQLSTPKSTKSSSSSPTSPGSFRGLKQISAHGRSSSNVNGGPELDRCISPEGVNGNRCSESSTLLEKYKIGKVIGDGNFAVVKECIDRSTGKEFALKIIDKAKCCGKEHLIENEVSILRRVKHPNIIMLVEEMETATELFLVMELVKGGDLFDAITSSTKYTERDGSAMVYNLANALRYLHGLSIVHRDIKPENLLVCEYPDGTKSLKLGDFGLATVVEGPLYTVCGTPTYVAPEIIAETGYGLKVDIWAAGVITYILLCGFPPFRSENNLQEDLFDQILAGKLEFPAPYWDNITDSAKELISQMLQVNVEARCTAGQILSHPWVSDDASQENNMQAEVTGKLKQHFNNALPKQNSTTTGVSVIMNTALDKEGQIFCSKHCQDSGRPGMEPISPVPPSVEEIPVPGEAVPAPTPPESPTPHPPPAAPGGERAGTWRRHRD", "settings": "DCAMKL2; 1 uM; read-out: Percent Control (%)", "summary_of_the_method": "as §1"}, "[10]": {"target": "T10, scanMAX Kinase assay panel (Homo sapiens, UniProt Q96SB4)", "T10 construct": "purchased DiscoverX", "settings": "SRPK1; 1 uM; read-out: Percent Control (%)", "summary_of_the_method": "as §1"}, "[11]": {"target": "T11, scanMAX Kinase assay panel (Homo sapiens, UniProt Q9BRS2)", "T11 construct": "purchased DiscoverX", "T11 sequence (Q9BRS2 1-568)": "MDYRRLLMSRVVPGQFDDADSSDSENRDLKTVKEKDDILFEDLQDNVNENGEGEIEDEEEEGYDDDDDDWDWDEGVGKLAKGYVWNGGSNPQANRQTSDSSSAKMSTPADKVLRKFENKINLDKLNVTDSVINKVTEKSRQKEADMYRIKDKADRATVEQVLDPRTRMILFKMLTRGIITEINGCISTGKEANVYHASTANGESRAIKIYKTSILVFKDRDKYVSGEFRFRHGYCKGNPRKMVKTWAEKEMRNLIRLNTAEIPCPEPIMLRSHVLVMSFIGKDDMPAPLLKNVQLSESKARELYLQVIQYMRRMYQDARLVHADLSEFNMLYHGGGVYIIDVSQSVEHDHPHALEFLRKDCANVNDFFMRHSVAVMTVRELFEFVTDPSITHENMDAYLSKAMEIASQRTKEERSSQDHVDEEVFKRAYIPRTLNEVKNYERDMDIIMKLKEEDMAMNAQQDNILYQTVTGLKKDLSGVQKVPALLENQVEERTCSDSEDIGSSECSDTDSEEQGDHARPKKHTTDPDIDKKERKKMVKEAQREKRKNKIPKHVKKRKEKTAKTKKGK", "settings": "RIOK1; 1 uM; read-out: Percent Control (%)", "summary_of_the_method": "as §1"}, "[12]": {"target": "T12, scanMAX Kinase assay panel (Homo sapiens, UniProt Q9HBH9)", "T12 construct": "purchased DiscoverX", "T12 sequence (Q9HBH9 whole entry)": "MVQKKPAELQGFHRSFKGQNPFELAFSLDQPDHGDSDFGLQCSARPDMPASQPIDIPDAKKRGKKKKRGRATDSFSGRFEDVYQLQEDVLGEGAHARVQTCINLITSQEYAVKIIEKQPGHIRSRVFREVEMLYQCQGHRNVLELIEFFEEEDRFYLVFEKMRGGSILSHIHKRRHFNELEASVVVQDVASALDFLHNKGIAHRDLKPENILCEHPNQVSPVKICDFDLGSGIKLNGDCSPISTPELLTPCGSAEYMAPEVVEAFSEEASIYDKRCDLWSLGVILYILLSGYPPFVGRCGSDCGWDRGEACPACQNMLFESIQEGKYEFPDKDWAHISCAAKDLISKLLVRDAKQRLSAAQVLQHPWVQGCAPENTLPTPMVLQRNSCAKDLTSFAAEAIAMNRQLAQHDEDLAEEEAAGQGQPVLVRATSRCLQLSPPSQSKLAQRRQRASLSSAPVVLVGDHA", "settings": "MKNK2; 1 uM; read-out: Percent Control (%)", "summary_of_the_method": "as §1"}, "[13]": {"target": "T13, scanMAX Kinase assay panel (Homo sapiens, UniProt Q9NSY1)", "T13 construct": "purchased DiscoverX", "T13 sequence (Q9NSY1 whole entry)": "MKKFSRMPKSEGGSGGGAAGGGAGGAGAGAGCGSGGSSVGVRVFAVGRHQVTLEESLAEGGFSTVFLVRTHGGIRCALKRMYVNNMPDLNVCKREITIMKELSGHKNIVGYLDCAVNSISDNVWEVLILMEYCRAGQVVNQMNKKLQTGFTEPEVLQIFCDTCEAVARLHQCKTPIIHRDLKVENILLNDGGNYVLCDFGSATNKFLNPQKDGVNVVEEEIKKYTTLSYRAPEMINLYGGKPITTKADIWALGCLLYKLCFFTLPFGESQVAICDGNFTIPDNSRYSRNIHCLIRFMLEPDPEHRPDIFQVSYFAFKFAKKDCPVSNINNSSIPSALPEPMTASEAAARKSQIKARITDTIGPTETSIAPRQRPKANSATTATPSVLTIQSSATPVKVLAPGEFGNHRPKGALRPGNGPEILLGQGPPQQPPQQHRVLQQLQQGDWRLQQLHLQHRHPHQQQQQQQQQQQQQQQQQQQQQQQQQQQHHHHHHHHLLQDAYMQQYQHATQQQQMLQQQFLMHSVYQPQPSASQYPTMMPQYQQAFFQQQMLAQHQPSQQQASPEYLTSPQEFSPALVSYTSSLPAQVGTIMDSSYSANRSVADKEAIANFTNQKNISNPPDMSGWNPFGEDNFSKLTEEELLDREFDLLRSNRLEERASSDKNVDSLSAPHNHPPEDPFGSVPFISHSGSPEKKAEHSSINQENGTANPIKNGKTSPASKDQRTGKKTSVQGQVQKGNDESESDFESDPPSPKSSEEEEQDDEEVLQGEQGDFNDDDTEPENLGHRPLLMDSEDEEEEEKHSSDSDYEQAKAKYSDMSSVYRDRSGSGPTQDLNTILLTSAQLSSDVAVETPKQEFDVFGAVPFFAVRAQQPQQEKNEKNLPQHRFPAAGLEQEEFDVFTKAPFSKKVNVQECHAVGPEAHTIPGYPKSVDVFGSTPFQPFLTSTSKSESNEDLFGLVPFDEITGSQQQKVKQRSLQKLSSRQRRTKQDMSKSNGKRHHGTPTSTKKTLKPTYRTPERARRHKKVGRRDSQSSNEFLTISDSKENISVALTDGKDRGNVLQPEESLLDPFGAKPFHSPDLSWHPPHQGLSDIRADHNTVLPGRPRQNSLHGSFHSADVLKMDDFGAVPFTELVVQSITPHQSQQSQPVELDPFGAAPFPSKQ", "settings": "BIKE; 1 uM; read-out: Percent Control (%)", "summary_of_the_method": "as §1"}, "[14]": {"target": "T14, scanMAX Kinase assay panel (Homo sapiens, UniProt Q9UQM7)", "T14 construct": "purchased DiscoverX", "T14 sequence (Q9UQM7 whole entry)": "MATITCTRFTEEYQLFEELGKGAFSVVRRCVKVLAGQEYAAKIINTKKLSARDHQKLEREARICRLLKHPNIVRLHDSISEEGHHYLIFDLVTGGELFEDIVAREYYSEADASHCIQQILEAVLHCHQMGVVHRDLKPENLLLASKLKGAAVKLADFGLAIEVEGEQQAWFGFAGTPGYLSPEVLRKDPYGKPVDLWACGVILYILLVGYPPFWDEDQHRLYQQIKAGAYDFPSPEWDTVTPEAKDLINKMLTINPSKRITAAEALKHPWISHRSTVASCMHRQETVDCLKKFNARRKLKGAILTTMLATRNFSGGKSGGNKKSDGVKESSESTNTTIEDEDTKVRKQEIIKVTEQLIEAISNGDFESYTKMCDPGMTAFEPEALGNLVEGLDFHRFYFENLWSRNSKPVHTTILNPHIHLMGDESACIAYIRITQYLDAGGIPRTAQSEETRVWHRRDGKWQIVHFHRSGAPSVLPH", "settings": "CAMK2A; 1 uM; read-out: Percent Control (%)", "summary_of_the_method": "as §1"}, "[15]": {"target": "T15, scanMAX Kinase assay panel (Homo sapiens, UniProt Q9Y6M4)", "T15 construct": "purchased DiscoverX", "settings": "CSNK1G3; 1 uM; read-out: Percent Control (%)", "summary_of_the_method": "as §1"}}, "data": [{"smiles": "Cc1ccc(NC(=O)C2(C(=O)Nc3ccc(F)cc3)CC2)cc1C#Cc1cnc2c(Nc3cnn(C(C)C)c3)cccn12", "note": "[Example 78]", "values": [{"measurement": "remaining binding at 1 µM", "setting": "[1]", "value": 98, "unit": "%"}, {"measurement": "remaining binding at 1 µM", "setting": "[2]", "value": 100, "unit": "%"}, {"measurement": "remaining binding at 1 µM", "setting": "[3]", "value": 91, "unit": "%"}, {"measurement": "remaining binding at 1 µM", "setting": "[4]", "value": 100, "unit": "%"}, {"measurement": "remaining binding at 1 µM", "setting": "[5]", "value": 100, "unit": "%"}, {"measurement": "remaining binding at 1 µM", "setting": "[6]", "value": 100, "unit": "%"}, {"measurement": "remaining binding at 1 µM", "setting": "[7]", "value": 78, "unit": "%"}, {"measurement": "remaining binding at 1 µM", "setting": "[8]", "value": 99, "unit": "%"}, {"measurement": "remaining binding at 1 µM", "setting": "[9]", "value": 100, "unit": "%"}, {"measurement": "remaining binding at 1 µM", "setting": "[10]", "value": 97, "unit": "%"}, {"measurement": "remaining binding at 1 µM", "setting": "[11]", "value": 100, "unit": "%"}, {"measurement": "remaining binding at 1 µM", "setting": "[12]", "value": 100, "unit": "%"}, {"measurement": "remaining binding at 1 µM", "setting": "[13]", "value": 100, "unit": "%"}, {"measurement": "remaining binding at 1 µM", "setting": "[14]", "value": 100, "unit": "%"}, {"measurement": "remaining binding at 1 µM", "setting": "[15]", "value": 100, "unit": "%"}]}, {"smiles": "Cc1cn(-c2cc(NC(=O)c3ccc(C)c(C#Cc4cnc5c(Nc6cnn(C)c6)cccn45)c3)cc(C(F)(F)F)c2)cn1", "note": "[Example 12, 4-methyl-N-(3-(4-methyl-1H-imidazol-1-yl)-5-(trifluoromethyl)phenyl)-3-((8-((1-methyl-1H-pyrazol-4-yl)amino)imidazo[1,2-a]pyridin-3-yl)ethynyl)benzamide]", "values": [{"measurement": "remaining binding at 1 µM", "setting": "[1]", "value": 100, "unit": "%"}, {"measurement": "remaining binding at 1 µM", "setting": "[2]", "value": 8, "unit": "%"}, {"measurement": "remaining binding at 1 µM", "setting": "[3]", "value": 28, "unit": "%"}, {"measurement": "remaining binding at 1 µM", "setting": "[4]", "value": 33, "unit": "%"}, {"measurement": "remaining binding at 1 µM", "setting": "[5]", "value": 100, "unit": "%"}, {"measurement": "remaining binding at 1 µM", "setting": "[6]", "value": 100, "unit": "%"}, {"measurement": "remaining binding at 1 µM", "setting": "[7]", "value": 97, "unit": "%"}, {"measurement": "remaining binding at 1 µM", "setting": "[8]", "value": 81, "unit": "%"}, {"measurement": "remaining binding at 1 µM", "setting": "[9]", "value": 78, "unit": "%"}, {"measurement": "remaining binding at 1 µM", "setting": "[10]", "value": 69, "unit": "%"}, {"measurement": "remaining binding at 1 µM", "setting": "[11]", "value": 91, "unit": "%"}, {"measurement": "remaining binding at 1 µM", "setting": "[12]", "value": 78, "unit": "%"}, {"measurement": "remaining binding at 1 µM", "setting": "[13]", "value": 85, "unit": "%"}, {"measurement": "remaining binding at 1 µM", "setting": "[14]", "value": 96, "unit": "%"}, {"measurement": "remaining binding at 1 µM", "setting": "[15]", "value": 84, "unit": "%"}]}, {"smiles": "Cc1ccc(C(=O)Nc2ccc(CN3CCN(C)CC3)c(C(F)(F)F)c2)cc1C#Cc1cnc2c(Nc3cnn(C)c3)cccn12", "note": "[Example 1, 4-methyl-3-((8-((1-methyl-1H-pyrazol-4-yl)amino)imidazo[1,2-a]pyridin-3-yl)ethynyl)-N-(4-((4-methylpiperazin-1-yl)methyl)-3-(trifluoromethyl)phenyl)benzamide]", "values": [{"measurement": "remaining binding at 1 µM", "setting": "[1]", "value": 90, "unit": "%"}, {"measurement": "remaining binding at 1 µM", "setting": "[2]", "value": 7, "unit": "%"}, {"measurement": "remaining binding at 1 µM", "setting": "[3]", "value": 32, "unit": "%"}, {"measurement": "remaining binding at 1 µM", "setting": "[4]", "value": 3, "unit": "%"}, {"measurement": "remaining binding at 1 µM", "setting": "[5]", "value": 100, "unit": "%"}, {"measurement": "remaining binding at 1 µM", "setting": "[6]", "value": 76, "unit": "%"}, {"measurement": "remaining binding at 1 µM", "setting": "[7]", "value": 93, "unit": "%"}, {"measurement": "remaining binding at 1 µM", "setting": "[8]", "value": 74, "unit": "%"}, {"measurement": "remaining binding at 1 µM", "setting": "[9]", "value": 91, "unit": "%"}, {"measurement": "remaining binding at 1 µM", "setting": "[10]", "value": 3, "unit": "%"}, {"measurement": "remaining binding at 1 µM", "setting": "[11]", "value": 77, "unit": "%"}, {"measurement": "remaining binding at 1 µM", "setting": "[12]", "value": 2, "unit": "%"}, {"measurement": "remaining binding at 1 µM", "setting": "[13]", "value": 81, "unit": "%"}, {"measurement": "remaining binding at 1 µM", "setting": "[14]", "value": 82, "unit": "%"}, {"measurement": "remaining binding at 1 µM", "setting": "[15]", "value": 100, "unit": "%"}]}]}
